Data set [1] can be described thus: in vitro. The settings on record: rhesus monkey, liver microsomes. (In general: Liver microsomes are vesicles of endoplasmic reticulum, rich in cytochrome P450 enzymes.)
Data set [2] in a line: in vitro. Conditions: human, liver microsomes.
The nature of data set [3]: Drug level in rhesus monkey plasma treated with 4-(8-((2,6-diethoxy-4'-fluorobiphenyl-4-yl)methyl)-3-oxo-2,8-diazaspiro[4.5]decan-2-yl)benzoic acid at 50 mg/kg, po qd for 5 days by HPLC analysis. It is filed as ADME, organism-based, Macaca mulatta. Conditions: in vivo, 120 h.
A short description of data set [4]: Metabolic stability in Beagle dog liver microsomes at 1 uM after 30 mins. The class given is ADME, Canis lupus familiaris, microsome. Conditions: read-out: Stability.
Data set [5] can be described thus: Metabolic stability in rat liver microsomes at 1 uM after 30 mins. It is filed as ADME, microsome. Conditions: read-out: Stability.
Data set [6] can be described thus: in vivo. The settings on record: Sprague-Dawley, rat.
Data set [7] is described as follows: Drug metabolism in rhesus monkey plasma assessed as de-ethylation of ethoxyl group at 50 mg/kg, po qd for 5 days by HPLC analysis. The class given is ADME, organism-based, Macaca mulatta. The settings on record: in vivo, 120 h.
Data set [8] is described as follows: Drug metabolism in rhesus monkey plasma assessed as hydroxylation of benzoic acid at 50 mg/kg, po qd for 5 days by HPLC analysis. The class given is ADME, organism-based, Macaca mulatta. The settings on record: in vivo, 120 h.
Data set [9] is described as follows: Fraction unbound in high fat diet fed C57BL/6N mouse plasma at 3 mg/kg, po after 3 hrs. It is filed as ADME, organism-based. The settings on record: in vivo.
Data set [10] is described as follows: Drug metabolism in rhesus monkey plasma assessed as glucuronidation of carboxylic acid at 50 mg/kg, po qd for 5 days by HPLC analysis. Conditions: in vivo, 120 h. It is filed as ADME, organism-based, Macaca mulatta.
Data set [11] can be described thus: Drug metabolism in rhesus monkey plasma assessed as oxidation of biphenyl ring at 50 mg/kg, po qd for 5 days by HPLC analysis. It is filed as ADME, organism-based, Macaca mulatta. The settings on record: in vivo, 120 h.
Data set [12] is described as follows: in vivo. Conditions: rhesus monkey, plasma, po, 5 mg/kg.
A short description of data set [13]: in vivo. Conditions: Sprague-Dawley, rat, po, 2 mg/kg.
Data set [14] can be described thus: in vivo. The settings on record: Sprague-Dawley, rat. The source holds these as a separate data set.
Data set [15] in a line: in vivo. Conditions: rhesus monkey, po, 5 mg/kg.
Data set [16] can be described thus: in vivo. The settings on record: rhesus monkey, po, 5 mg/kg. The source holds these as a separate data set.
Data set [17] can be described thus: in vivo. Conditions: Sprague-Dawley, rat, iv, 1 mg/kg.

The source of these data is ChEMBL document CHEMBL4266057, “Optimization of Preclinical Metabolism for Somatostatin Receptor Subtype 5-Selective Antagonists” (ACS Med Chem Lett, 2018).

For `Cc1cc(-c2ccc(F)c(F)c2F)c(CN2CCC3(CC2)CC(=O)N(c2ccc(C(=O)O)cc2)C3)cc1C(F)(F)F`, the remaining at 0.5 h, 1 µM in data set [1] is 94%; in data set [2], 100%.
Take `CCOc1cc(CN2CCC3(CC2)CC(=O)N(c2ccc(C(=O)O[C@@H]4O[C@H](C(=O)O)[C@@H](O)[C@H](O)[C@H]4O)cc2)C3)cc(OCC)c1-c1ccc(F)cc1`: the Drug metabolism entry in data set [3] is recorded as “Metabolite_Detected”.
As a reminder, the AUC is concentration integrated over time. For the compound `CCOc1cc(CN2CCC3(CC2)CC(=O)N(c2ccc(C(=O)O)cc2)C3)cc(OCC)c1-c1ccc(F)cc1`, the remaining at 0.5 h, 1 µM in data set [4] was over 80%; in data set [5] it was over 80%; in data set [1] it was 28%; in data set [2], 92%. For the same compound, in [6], the AUC is 1.67 µM·h. Further, the Drug metabolism entry in [7], in [8], in data set [10] and in data set [11] was “Metabolite_Detected” in each case. The “Cp(f)” value in data set [9] turned out to be 16 nM.
As a reminder, the bioavailability is the share of a dose that reaches the circulation, judged against a reference dose that is usually intravenous. What is called half-life is how long it takes for the measured level to halve. One may read the Cmax as the maximum level reached in the sampled fluid or tissue. The term clearance denotes the volume of plasma or blood freed of the substance per unit of time. As to `O=C(O)c1ccc(N2CC3(CCN(Cc4cc(C(F)(F)F)ccc4C4CC4)CC3)OC2=O)cc1`, the AUC is 8.5 µM·h in data set [6] and 31.2 µM·h in data set [16]. The concentration at 24 h in data set [12] was 470 nM. Besides, the figures for the remaining at 0.5 h, 1 µM in [1] and in [2] were 94% and 99%, respectively. The bioavailability in [13] is 85%. Further, the half-life in data set [14] is 1.6 h. The compound further gave a Cmax in data set [15] of 2990 nM. In [17], this compound yielded a clearance of 3.4 mL/min/kg.
In the case of `Cc1cccc2c(CN3CCC4(CC3)CC(=O)N(c3ccc(C(=O)O)cc3)C4)cn(C(C)C)c12`, the remaining at 0.5 h, 1 µM in data set [1] stood at 95%; in data set [2], 100%.
